Results taken from US9006517B2, “Methods and compositions for plant pest control” (Monsanto Technology LLC, priority 2008, dated 2015).
≈ marks a conversion by molar mass, not a printed value. Where two headings read alike, the source gives them in different places.

Tests used:
[1] = tested on: M. incognita pre-parasitic J2 larvae; test: In vitro nematicidal efficacy of methylketones on M. incognita J2 larvae; format: cell-based; settings: Meloidogyne incognita, read-out: IC30 M. incognita vs. J2
Protocol: (§1) The example illustrates the surprising nematicidal efficacy of various methylketones. Methylketones of various chain lengths were tested in vitro against C. elegans L1 and L4 larvae and M. incognita pre-parasitic J2 larvae, the dispersal larval stage found in the soil. […] IC30 is defined as the concentration of the methylketone at which 30 percent of the nematodes are killed after an exposure of 4 hours for C. elegans and 24 hours for M. incognita.

[2] = tested on: C. elegans L1 and L4 larvae; test: In vitro nematicidal efficacy of methylketones on C. elegans larvae; format: cell-based; settings: Caenorhabditis elegans
Protocol: as §1

[3] = tested on: root knot nematode (M. incognita); test: Greenhouse whole plant assay, root knot nematode infection of tomato in sand; format: in vivo; settings: for nematode control (in words): M. incognita, greenhouse, 40 and 8 kg/ha; for % Control: control of nematode-induced galling; for % Galled Roots: soil application before inoculation, harvest 21 days, no compound added: 60
Protocol: (§2) Whole plant assays were used to determine the efficacy of the methylketones on the infection of soybean plants and tomato plants by nematodes, H. glycines and M. incognita, respectively. The seeds were planted in 100 percent sand in two-inch square plastic pots and grown to a sufficient size for treatment. […] Following methylketone treatment, nematodes were inoculated into each pot and for soybeans are then incubated for 28 days before harvest and for tomatoes incubated 21 days before harvest.
(§3) To each of four pots, five milliliters of the appropriate chemical solution is applied to the surface making sure to avoid contact with the base of the plant. Immediately following the chemical application, the pot surface is wetted sufficiently to water in the chemical. One milligram of chemical per four pots is approximately equivalent to one kilogram per hectare of chemical. A standard test uses four replications. For rates above 2 kg/ha, the desired amount of chemical is weighed into a 30 ml vial (example: 8 kg/ha rate=8 mg chemical in 30 ml vial). The chemical is dissolved in 2 ml of an appropriate solvent, generally acetone. For rates below 2 kg/ha, 2 milligrams of chemistry is weighed into the vial and dissolved in 2 ml of the solvent. The appropriate amount of chemical concentrate is then applied into a separate 30 ml vial and solvent is added to bring the volume to 2 ml (example 0.5 kg/ha=0.5 ml of concentrate+1.5 ml solvent). Each dissolved concentrate is then brought to a total of 20 milliliters using 0.05% Triton X-100 surfactant solution.
(§4) Nematode eggs, either SCN or RKN, are added to distilled water to create a concentration of 1000 vermiform eggs per […] of water. At least four hours after chemical treatment the eggs are applied to the treated pots plus non-treated check plants. A small hole about 1 cm deep is punched into the pot surface. One milliliter of the nematode egg slurry is applied into the hole. Immediately afterwards the hole is gently covered. Watering of the test plants is then restricted to a minimum volume needed to prevent wilting for a period of 24 hours. After the 24 hour restricted watering, normal sub-irrigation watering is done for the duration of the test.
The 2-undecanone, 2-tridecanone, and 2-pentadecanone are tested in greenhouse studies against M. incognita infection of tomato roots in sand. […] Shown in Table 2 is a high level of nematicidal activity of various methylketones observed against root knot nematode (M. incognita) inoculated into treated pots containing tomato plants. […] The listed kilograms/hectare (kg/ha) rating is based upon the surface area of the test pots; 1 kg/ha equates to about 1.65 mg compound per kilogram of soil in these assays.

[4] = tested on: soybean cyst nematode (H. glycines); test: Greenhouse whole plant assay, soybean cyst nematode infection of soybean; format: in vivo; settings: for % Control: relative to the non-treated; for #cysts/plant: soil drench prior to inoculation, harvest 28 days, no compound added: 49
Protocol: as §2, §3, §4
2-tridecanone was also assayed in the greenhouse for control of soybean cyst nematode (H. glycines) in soybeans (Table 3). Nematode control (#cysts/plant) is observed at 40 kg/ha (96% control relative to the non-treated) and 8 kg/ha (80% control relative to the non-treated) when 2-tridecanone was applied as a soil drench prior to nematode inoculation.

[5] = concentration at which 30 percent of the nematodes are killed, exposure 24 hours, J2 larvae
[6] = concentration at which 30 percent of the nematodes are killed, exposure 4 hours, L1 larvae, read-out: IC30 C. elegans vs. L1
[7] = concentration at which 30 percent of the nematodes are killed, exposure 4 hours, L4 larvae, read-out: IC30 C. elegans vs. L4

| Structure (SMILES) | IC30 [1, 5] [µg/mL] | IC30 [2, 6] [µg/mL] | IC30 [2, 7] [µg/mL] | nematode control (in words) [3] | % Control ([3]; rate 8 kg/ha) [%] | % Galled Roots ([3]; rate 8 kg/ha) [%] | % Control ([3]; rate 40 kg/ha) [%] | % Galled Roots ([3]; rate 40 kg/ha) [%] | % Control ([4]; rate 8 kg/ha) [%] | #cysts/plant ([4]; rate 8 kg/ha) | % Control ([4]; rate 40 kg/ha) [%] | #cysts/plant ([4]; rate 40 kg/ha) | IC30 ([1]; 24 h) [µg/mL] | IC30 ([2]; 4 h, read-out: IC30 C. elegans vs. L1) [µg/mL] | IC30 ([2]; 4 h, read-out: IC30 C. elegans vs. L4) [µg/mL] |
| --- | --- | --- | --- | --- | --- | --- | --- | --- | --- | --- | --- | --- | --- | --- | --- |
| CCCCCCCCC(C)=O [2-decanone] | 25 (≈ 160 µM) | 6.3 (≈ 40.3 µM) | > 400 |  |  |  |  |  |  |  |  |  |  |  |  |
| CCCCCCCCCCC(C)=O [2-dodecanone] | 50 (≈ 271 µM) | 3.2 (≈ 17.4 µM) | 25 (≈ 136 µM) |  |  |  |  |  |  |  |  |  |  |  |  |
| CCCCCC(C)=O [2-heptanone] | 400 (≈ 3500 µM) | > 400 | > 400 |  |  |  |  |  |  |  |  |  |  |  |  |
| CCCCCCCC(C)=O [2-nonanone] | 200 (≈ 1410 µM) | 12.5 (≈ 87.9 µM) | > 400 |  |  |  |  |  |  |  |  |  |  |  |  |
| CCCCCCCCCCCCCC(C)=O [2-pentadecanone] | 400 (≈ 1770 µM) | 12.5 (≈ 55.2 µM) | > 100 | demonstrated nematode control | 25 | 45 | 37 | 38 |  |  |  |  |  |  |  |
| CCCCCCCCCCCCC(C)=O [2-tetradecanone] | 25 (≈ 118 µM) | 3.2 (≈ 15.1 µM) | > 100 |  |  |  |  |  |  |  |  |  |  |  |  |
| CCCCCCCCCCCC(C)=O [2-tridecanone] | 50 (≈ 252 µM) | 3.2 (≈ 16.1 µM) | 12.5 (≈ 63 µM) |  | 97 | 2 | 100 | 0 | 80 | 10 | 96 | 2 |  |  |  |
| CCCCCCCCCC(C)=O [2-undecanone] |  |  |  | demonstrated nematode control | 35 | 39 | 65 | 21 |  |  |  |  | 50 (≈ 294 µM) | 6.3 (≈ 37 µM) | 25 (≈ 147 µM) |
